# Assay results reported in US11666594B2, “Antibody-drug conjugates comprising a cyclic dinucleotide” (TAKEDA PHARMACEUTICAL COMPANY LIMITED, priority 2016, dated 2023).
# Counter-ions that a name gives are not always drawn.
# Key:
# [1] = Human plasma stability assay; format: in vitro ADME; settings: elimination rate constant k; heparinized human plasma, 37° C., up to 24 hours
# Protocol: The compound was incubated in heparinized human plasma at 37° C. for 0, 1, 2, 4, 8 and 24 hours, and the change in compound concentration was measured by LC/MS/MS method. The elimination rate constant (=k(/h)) was calculated based on the fitted curve assuming the exponential decrease of concentration as follows; concentration at time x=initial concentration*exp(−k*x).
# CT-26 mouse tumor cells = assay: Anti-tumor effect in colon carcinoma CT-26 syngeneic mice model; format: in vivo; settings: CT-26, Balb/C mice; intravenous, q3dx3; Ex3a 30 mg/kg, Ex14 1.0 mg/kg
# Protocol: (§1) 8×10^4 B^16F10 and 2×10^5 CT-26 mouse tumor cells were subcutaneously implanted in the flank of female C57BL/6 (B16F10) and Balb/C (CT-26) mice (n=7 per group). Vehicle (1×PBS), compound Ex3a (30 mg/kg) or Ex14 (1.0 mg/kg) were intravenously administered (final volume of […]) to tumor-bearing mice once the tumor volume has reached 100 mm^3 (Day 0). Vehicle, Ex3a or Ex14 were given every 3 days for a total of 3 doses (q3dx3). Tumor and body weight measurements were taken three times per week using vernier calipers and mettler scale, respectively. Tumor volumes were determined by multiplying the square of the width (‘W’), measured along the […] of the tumor, by one-half the length (‘L’) measured along the […] of the tumor (V=W^2×0.5 L)
# B16F10 mouse tumor cells = assay: Anti-tumor effect in B16F10 syngeneic mice model; format: in vivo; settings: B16F10, C57BL/6 mice; intravenous, q3dx3; Ex3a 30 mg/kg, Ex14 1.0 mg/kg
# Protocol: as §1
# WT STING = WT STING (Homo sapiens (Human), UniProt Q86WV6, H232R); assay: Reporter gene assay (2): ISRE NanoLuc reporter in 293T cells, with digitonin, WT STING; format: cell-based; settings: for EC50: with digitonin, read-out: STING-293T cell EC50 (μM) Reporter with digitonin (B); for activation at 30 µM: HEK-293T, digitonin, 2′,3′-cGAMP (30 μM) = 100%, read-out: activity level against WT STING of test compound (30 μM)
# Chain of WT STING (Q86WV6 whole entry H232R): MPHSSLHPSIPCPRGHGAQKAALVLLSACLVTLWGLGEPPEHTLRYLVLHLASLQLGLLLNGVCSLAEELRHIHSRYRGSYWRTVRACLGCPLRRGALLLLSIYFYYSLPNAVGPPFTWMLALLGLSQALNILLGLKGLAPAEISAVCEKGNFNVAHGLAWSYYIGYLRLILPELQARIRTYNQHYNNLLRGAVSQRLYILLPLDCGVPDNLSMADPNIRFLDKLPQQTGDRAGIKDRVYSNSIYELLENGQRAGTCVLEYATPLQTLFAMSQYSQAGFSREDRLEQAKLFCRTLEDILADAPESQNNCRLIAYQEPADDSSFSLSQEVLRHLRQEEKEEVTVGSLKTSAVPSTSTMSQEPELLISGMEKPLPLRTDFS
# Protocol: The culture solution was removed, and the test compound diluted with assay buffer (50 mM HEPES pH 7.0, 100 mM KCl, 3 mM MgCl2, 85 mM Sucrose, 0.1 mM DTT, 0.2% BSA, 1 mM ATP, 0.1 mM GTP, 10 μg/ml Digitonin) was added thereto by 15 μL/well. […] Luminescence signals derived from firefly luciferase and NanoLuc Luciferase were each measured using EnVision (PerkinElmer, Waltham, Mass., US) according to Nano-Glo Dual-Luciferase Reporter Assay System (Promega, Fitchburg, Wis., US) protocol. The ratio of the count of NanoLuc Luciferase divided by the count of firefly luciferase was used for culculation.
# [2] = test system: IRF3 phosphorylation in FaDu cell; assay: Phosphorylated IRF3 protein detection in FaDu cell; format: cell-based, human; settings: at 30 μM; 6 hr; 2′,3′-cGAMP 30 μM = 100%
# Protocol: Human larynx cancer cell line FaDu cell (ATCC) was seeded, the medium was replaced with serum free medium one day after the seeding. After the replacement, the cell was cultured for one day, and to the cell were added the natural ligand 2′,3′-cGAMP (the final concentration; 30 μM) and test compound (the final concentration; 15 μM or 30 μM). 6 hr after the addition, the cell was washed with PBS, the cell extract was prepared, and the phosphorylated IRF3 protein was detected by ELISA method or Western blotting method. The IRF3 protein phosphorylation activity of the test compound was calculated when the value in the sample with adding the natural ligand 2′,3′-cGAMP at the final concentration of 30 μM was considered as 100%.
# THP1-Dual cells = assay: THP-1 Dual Lucia reporter gene assay; format: cell-based, human; settings: 20 hours; read-out: THP-1 Dual cell EC50 (μM) Reporter
# Protocol: THP1-Dual™ cells (InvivoGen #thpd-nfis) were derived from the human THP-1 monocyte cell line by stable integration of the Lucia luciferase gene, a secreted luciferase reporter gene, under the control of an ISG54 (interferon-stimulated gene) minimal promoter in conjunction with five interferon (IFN)-stimulated response elements. On the day of experiment, the cells were plated to a black, 384-well plate (Corning 356697) at 7500 cells/25 μL per well density in growth media (RPMI 1640, 2 mM L-glutamine, 25 mM HEPES, 10% heat-inactivated fetal bovine serum, 100 μg/mL Normocin™, 100 U/mL-100 μg/mL Pen-Strep, 10 μg/mL of blasticidin, and 100 μg/mL of Zeocin). The cell plates were dosed with 62.5 nL of the testing compounds, and then incubated at 37° C. for 20 hours. At the end of the incubation, 15 μL/well of the QUANTI-Luc™ (InvivoGen #rep-qlc1) were added, and luminescence was measured immediately using the LeadSeeker.
SMILES,Human plasma stability [1] [h⁻¹],anti-tumor effect (CT-26 mouse tumor cells),anti-tumor effect (B16F10 mouse tumor cells),EC50 (WT STING) [µM],activity level of test compound (IRF3 protein phosphorylation) [2] [% at 30 μM],EC50 (THP1-Dual cells) [µM],activation at 30 µM (WT STING) [%]
"Nc1ncnc2c1ncn2[C@@H]1O[C@@H]2COP(=O)(S)O[C@@H]3[C@H](O)[C@@H](COP(=O)(S)O[C@H]2[C@H]1F)O[C@H]3n1cc(F)c2c(=O)[nH]cnc21 (stereo partly drawn) [Example 14, 7-((2R,5R,7R,8R,10R,12aR,14R,15R,15aR,16R)-14-(6-amino-9H-purin-9-yl)-15-fluoro-16-hydroxy-2,10-dioxido-2,10-disulfanyloctahydro-12H-5,8-methanofuro[3,2-1][1,3,6,9,11,2,10]pentaoxadiphosphacyclotetradecin-7-yl)-5-fluoro-3,7-dihydro-4H-pyrrolo[2,3-d]pyrimidin-4-one disodium salt]",<0.01,anti-tumor effects were observed,anti-tumor effects were observed,0.13,,,
"Nc1ncnc2c1ncn2[C@@H]1O[C@@H]2COP(=O)(O)O[C@@H]3[C@H](O)[C@@H](COP(=O)(S)O[C@H]2[C@H]1F)O[C@H]3n1cc(F)c2c(=O)[nH]cnc21 (stereo partly drawn) [Example 2, 7-((5R,7R,8R,12aR,14R,15R,15aR,16R)-14-(6-amino-9H-purin-9-yl)-15-fluoro-10,16-dihydroxy-2,10-dioxido-2-sulfanyloctahydro-12H-5,8-methanofuro[3,2-1][1,3,6,9,11,2,10]pentaoxadiphosphacyclotetradecin-7-yl)-5-fluoro-3,7-dihydro-4H-pyrrolo[2,3-d]pyrimidin-4-one di-triethylamine salt (Optical Isomer)]",,,,,88.7,,
"Nc1nc2c(ncn2[C@@H]2O[C@@H]3COP(=O)(O)O[C@H]4[C@@H](O)[C@H](n5cnc6c(N)ncnc65)O[C@@H]4COP(=O)(O)O[C@@H]2[C@@H]3O)c(=O)[nH]1 [cGAMP, 2′,3′-cGAMP, reference compound]",1.39,,,,,,
"Nc1ncnc2c1ncn2[C@@H]1O[C@@H]2COP(=O)(O)O[C@@H]3[C@H](O)[C@@H](COP(=O)(S)O[C@H]2[C@H]1F)O[C@H]3n1cc(F)c2c(=O)[nH]cnc21 (stereo partly drawn) [Ex3a, disodium (5R,7R,8R,2aR,14R,15R,5aR,16R)-14-(6-amino-9H-purin-9-yl)-15-fluoro-7-(5-fluoro-4-oxo-3,4-dihydro-7H-pyrrolo[2,3-d]pyrimidin-7-yl)-16-hydroxy-2-sulfidooctahydro-12H-5,8-methanofuro[3,2-1][1,3,6,9,11,2,10]pentaoxadiphosphacyclotetradecin-10-olate 2,10-dioxide]",0.58,anti-tumor effects were observed,anti-tumor effects were observed,0.13,,5.6,
"Nc1ncnc2c1ncn2[C@@H]1O[C@@H]2COP(=O)(O)O[C@@H]3[C@H](O)[C@@H](COP(=O)(S)O[C@H]2[C@H]1F)O[C@H]3n1cc(F)c2c(=O)[nH]cnc21 (stereo partly drawn) [Example 3, 7-((2R,5R,7R,8R,12aR,14R,15R,15aR,16R)-14-(6-amino-9H-purin-9-yl)-15-fluoro-10,16-dihydroxy-2,10-dioxido-2-sulfanyloctahydro-12H-5,8-methanofuro[3,2-1][1,3,6,9,11,2,10]pentaoxadiphosphacyclotetradecin-7-yl)-5-fluoro-3,7-dihydro-4H-pyrrolo[2,3-d]pyrimidin-4-one 1.7 triethylamine salt]",,,,,,,97
"Nc1ncnc2c1ncn2[C@@H]1O[C@@H]2COP(=O)(S)O[C@@H]3[C@H](O)[C@@H](COP(=O)(S)O[C@H]2[C@H]1O)O[C@H]3n1cc(F)c2c(=O)[nH]cnc21 (stereo partly drawn) [Example 5, 7-((5R,7R,8R,12aR,14R,15R,15aS,16R)-14-(6-amino-9H-purin-9-yl)-15,16-dihydroxy-2,10-dioxido-2,10-disulfanyloctahydro-12H-5,8-methanofuro[3,2-1][1,3,6,9,11,2,10]pentaoxadiphosphacyclotetradecin-7-yl)-5-fluoro-3,7-dihydro-4H-pyrrolo[2,3-d]pyrimidin-4-one di-triethylamine salt (Optical Isomer)]",<0.01,,,0.19,,,102
